Results from the supplement of paper PMC12317010.
Where a name gives a salt, the structure may show the parent alone.

Assay: collision cross section in nitrogen (drift tube, single-field); higher = larger gas-phase ion size
[1] = ion type: [M+H], ion source: ESI, ion mode: Positive
[2] = ion type: [M+H], ion source: APCI, ion mode: Positive
[3] = ion type: [M+Na], ion source: ESI, ion mode: Positive
[4] = ion type: [M-H], ion source: ESI, ion mode: Negative
[5] = ion source: APCI, ion mode: Positive, ion type: [M]+ (permanent cation)
[6] = ion source: ESI, ion mode: Positive, ion type: [M]+ (permanent cation)
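Further: chemical standards at 10 µM analysed by drift tube IMS-QTOF MS in about 3.95 torr nitrogen, mean of duplicate injections differing ≤1%, mass error below 10 ppm.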

| SMILES | collision cross section in nitrogen [1] | collision cross section in nitrogen [3] | collision cross section in nitrogen [4] | also measured |
| --- | --- | --- | --- | --- |
| CC(C)c1ccc2c(c1)CC[C@H]1[C@](C)(CN)CCC[C@]21C [Dehydroabietylamine] | 188.3 Å² | – | – | – |
| CCOC(=O)CN[C@@H](C(=O)N1CC[C@H]1C(=O)NCc1ccc(/C(N)=N/O)cc1)C1CCCCC1 [Ximelagatran] | 208.6 Å² | 213 Å² | 216.1 Å² | collision cross section in nitrogen [2]: 208.6 Å² |
| Cc1cccc(N(C)C(=S)Oc2ccc3ccccc3c2)c1 [Tolnaftate] | 175.4 Å² | 185.4 Å² | – | collision cross section in nitrogen [2]: 175.5 Å² |
| O=[N+]([O-])c1ccc(-c2nnc(O)o2)o1 [5-(5-Nitro-2-furyl)-1,3,4-oxadiazole-2-ol] | – | – | 135.2 Å² | – |
| O=C(CCCN1CCC(O)(c2ccc(Cl)cc2)CC1)c1ccc(F)cc1 [Haloperidol] | 195.1 Å² | 200.2 Å² | 190.2 Å² | collision cross section in nitrogen [2]: 195.1 Å² |
| CCN(CC)c1ccc(C=O)c(O)c1 [4-(Diethylamino)salicylaldehyde] | 143.7 Å² | – | 147 Å² | collision cross section in nitrogen [2]: 142.6 Å² |
| CCC(C)(CCC(C)C)C(=O)O (stereo not drawn) [Neodecanoic acid] | – | – | 145.2 Å² | – |
| c1cc(N(CC2CO2)CC2CO2)ccc1Cc1ccc(N(CC2CO2)CC2CO2)cc1 (stereo not drawn) [4,4'-Methylenebis(N,N-diglycidylaniline)] | 215.2 Å² | 199.7 Å² | – | collision cross section in nitrogen [2]: 215.7 Å² |
| CN(C)c1ccc(C(=C2C=CC(=[N+](C)C)C=C2)c2ccccc2)cc1 [Malachite green] | – | – | – | collision cross section in nitrogen [5]: 188.5 Å²; collision cross section in nitrogen [6]: 188.9 Å² |
| C[N+](C)(C)CCO [Choline hydroxide] | – | – | – | collision cross section in nitrogen [6]: 117.7 Å² |
| CC(C)OC(=O)c1ccccc1C(=O)OC(C)C [Diisopropyl phthalate] | – | 169.9 Å² | – | – |
| O=S(=O)(O)c1ccc(Cl)cc1 [4-Chlorobenzenesulphonic acid] | – | – | 133.5 Å² | – |
| O=C(O)CCCCC(=O)O [Hexanedioic acid] | – | – | 127.9 Å² | – |
| C[C@H]1CCCC(=O)CCC/C=C/c2cc(O)cc(O)c2C(=O)O1 [Zearalenone] | – | – | 177.5 Å² | – |
| CCOC(=O)NCCOc1ccc(Oc2ccccc2)cc1 [Fenoxycarb] | – | 184.6 Å² | – | – |
| c1ccc(C(O[C@@H]2CCCN(CCc3ccc4c(c3)OCO4)C2)c2ccccc2)cc1 [Zamifenacin] | 192.4 Å² | 195.9 Å² | – | collision cross section in nitrogen [2]: 192.3 Å² |
| N=C1NC(=N)c2cc3ccccc3cc21 [1,3-Diiminobenz(f)isoindoline] | 140.1 Å² | – | – | – |
| CCNc1ccc(C(=C2C=CC(=[N+](CC)CC)C=C2)c2ccc(N(CC)CC)cc2)c2ccccc12 [Basic Blue 7] | – | – | – | collision cross section in nitrogen [5]: 241.9 Å²; collision cross section in nitrogen [6]: 240.6 Å² |
| Cc1cc(-c2cc(C)c(N)c(C)c2)cc(C)c1N [3,3',5,5'-Tetramethylbenzidine] | 176 Å² | – | – | collision cross section in nitrogen [2]: 175.7 Å²; collision cross section in nitrogen (ion type: [M+], ion source: APCI, ion mode: Positive): 162.4 Å² |
| N#Cc1cc(Br)c(O)c(Br)c1 [Bromoxynil] | – | – | 131.2 Å² | – |
| CC(C)c1ccc(C(=O)N=C(N)N)cc1S(C)(=O)=O [Cariporide mesylate] | 173.6 Å² | 178.2 Å² | 169.3 Å² | collision cross section in nitrogen [2]: 175.1 Å² |

| SMILES | collision cross section in nitrogen [1] | collision cross section in nitrogen [3] | collision cross section in nitrogen [4] | also measured |
| --- | --- | --- | --- | --- |
| CCCCCCCCCCCC[N+](C)(C)C [Dodecyltrimethylammonium bromide] | – | – | – | collision cross section in nitrogen [6]: 175.8 Å² |
| CC(C)(c1ccc(O)c(-c2ccccc2)c1)c1ccc(O)c(-c2ccccc2)c1 [BisOPP-A] | – | – | 204 Å² | – |
| CC12CC1(C)C(=O)N(c1cc(Cl)cc(Cl)c1)C2=O (stereo not drawn) [Procymidone] | – | – | 157.1 Å² | – |
| O=C(Nc1ccccc1)c1cc2ccccc2cc1O [3-Hydroxy-2-naphthanilide] | 160.7 Å² | – | 160.7 Å² | collision cross section in nitrogen [2]: 160.9 Å² |
| Cc1ccc([N+](=O)[O-])cc1N=Nc1c(O)c(C(=O)Nc2ccccc2)cc2ccccc12 [C.I. Pigment Red 22] | – | – | 207 Å² | – |
| CCCCCOC(=O)c1ccccc1C(=O)OCCCCC [Dipentyl phthalate] | – | 193.4 Å² | – | – |
| COc1ccccc1N=Nc1c(S(=O)(=O)O)cc2cc(S(=O)(=O)O)cc(NC(C)=O)c2c1O [C.I. Acid Violet 12, disodium salt] | – | – | 218 Å² | – |
| CC(O)CNCC(C)O (stereo not drawn) [Diisopropanolamine] | 128.2 Å² | – | – | – |
| CCCCCC[C@@H](O)C/C=C\CCCCCCCC(=O)OCC(O)CO (stereo partly drawn) [Glyceryl monoricinoleate] | – | 201.9 Å² | – | – |
| CCCCCCC(C)OC(=O)COc1nc(F)c(Cl)c(N)c1Cl (stereo not drawn) [Fluroxypyr-meptyl] | – | 194.3 Å² | 176.2 Å² | – |
| COc1ccc(C(=O)c2ccccc2O)c(O)c1 [2,2′-Dihydroxy-4-methoxybenzophenone] | – | – | 153.6 Å² | – |
| CCCCCc1cc(O)cc(O)c1 [Olivetol] | – | – | 148.5 Å² | – |
| O=C(O)COc1ccc(Cl)cc1 [4-Chlorophenoxyacetic acid] | – | – | 140.9 Å² | – |
| CCN(Cc1cccc(S(=O)(=O)O)c1)c1ccccc1 [3-((Ethylphenylamino)methyl)benzenesulfonic acid] | 161.1 Å² | 174.9 Å² | 175.5 Å² | – |
| Nc1ccc(S(=O)(=O)O)c(N)c1 [2,4-Diaminobenzenesulfonic acid] | – | – | 137.9 Å² | – |
| CCc1cc(C)cc(CC)c1-c1c(OC(=O)C(C)(C)C)n2n(c1=O)CCOCC2 [Pinoxaden] | 196.6 Å² | 202.8 Å² | – | collision cross section in nitrogen [2]: 196.5 Å² |
| CN(C)NC(=O)CCC(=O)O [Daminozide] | – | 142.5 Å² | 135.2 Å² | – |
| N#Cc1ccc(C(=O)O)cc1 [4-Cyanobenzoic acid] | – | – | 142.1 Å² | – |
| C[C@]12CC[C@H]3[C@@H](CC[C@@]45O[C@@H]4C(O)=C(C#N)C[C@]35C)[C@@H]1CC[C@@H]2O [Trilostane] | – | – | 186.2 Å² | – |
| CCCCOC(=O)c1ccccc1C(=O)OCCCC [Dibutyl 1,2-benzenedicarboxylate] | – | 182.9 Å² | – | – |
| CCCCCC[C@@H](O)C/C=C\CCCCCCCC(=O)O [(9Z,12R)-12-Hydroxyoctadec-9-enoic acid] | – | 189.7 Å² | 178.6 Å² | – |

| SMILES | collision cross section in nitrogen [1] | collision cross section in nitrogen [3] | collision cross section in nitrogen [4] | also measured |
| --- | --- | --- | --- | --- |
| CCCCC(CC)COP(=O)(OCC(CC)CCCC)OCC(CC)CCCC (stereo not drawn) [Tris(2-ethylhexyl) phosphate] | – | 231.9 Å² | – | – |
| CCCCCCCCCCCC(=O)OCC [Ethyl dodecanoate] | – | – | 162.3 Å² | – |
| Cc1ncc(CO)c(CO)c1O [Pyridoxine] | 134.6 Å² | – | 133.2 Å² | collision cross section in nitrogen [2]: 133.7 Å² |
| COc1cc(C=O)ccc1O [4-Hydroxy-3-methoxybenzaldehyde] | – | – | 128.1 Å² | – |
| COC(OC)(C(=O)c1ccccc1)c1ccccc1 [2,2-Dimethoxy-1,2-diphenylethanone] | – | 170.6 Å² | – | – |
| COP(=S)(OC)Oc1c(Cl)cc(C)cc1Cl [Tolclofos-methyl] | 153.6 Å² | 169.1 Å² | – | – |
| C=CCOC(Cn1ccnc1)c1ccc(Cl)cc1Cl (stereo not drawn) [Imazalil] | 167.9 Å² | – | – | collision cross section in nitrogen [2]: 167.9 Å² |
| Oc1ccc(C2(c3ccc(O)c(C4CCCCC4)c3)CCCCC2)cc1C1CCCCC1 [1,1-Bis(3-cyclohexyl-4-hydroxyphenyl)cyclohexane] | – | 218.4 Å² | 217.2 Å² | – |
| CC1(C)Cc2cccc(N)c2O1 [2,2-Dimethyl-2,3-dihydro-1-benzofuran-7-amine] | 135 Å² | – | – | collision cross section in nitrogen [2]: 135.8 Å² |
| CCCCC(CC)C(=O)OCCOCCOCCOC(=O)C(CC)CCCC (stereo not drawn) [Triethylene glycol bis(2-ethylhexanoate)] | – | 207.3 Å² | – | – |
| CN(C)[C@@H]1C(O)=C(C(N)=O)C(=O)[C@@]2(O)C(O)=C3C(=O)c4c(O)cccc4[C@@](C)(O)[C@H]3[C@H](O)[C@@H]12 [Oxytetracycline hydrochloride] | 197.8 Å² | 207.7 Å² | 198.4 Å² | collision cross section in nitrogen [2]: 199.9 Å² |
| O=C1NC(=O)C2CC=CCC12 (stereo not drawn) [1,2,3,6-Tetrahydrophthalimide] | – | – | 132.6 Å² | – |
| Cc1c(O)cccc1O [2-Methyl-1,3-benzenediol] | – | – | 123.6 Å² | – |
| COCC(C)OCC(C)OCC(C)O (stereo not drawn) [Tripropylene glycol monomethyl ether] | – | 148.8 Å² | – | – |
| O=C(O)c1ccc(Cl)cc1C(=O)O [Monosodium hydrogen 4-chlorophthalate] | – | – | 132.5 Å² | – |
| Cc1ccc(S(=O)(=O)O)c(C)c1 [2,4-Dimethylbenzenesulfonic acid] | – | – | 138.3 Å² | – |
| COc1ccc(C(=O)Nc2nc3ccccc3c(NCc3ccccc3)c2C#N)cc1 | 206.7 Å² | 206.2 Å² | 210.8 Å² | collision cross section in nitrogen [2]: 207 Å² |
| CCCCNC(=O)NCCCC [N,N'-Dibutylurea] | 146 Å² | 164.2 Å² | – | collision cross section in nitrogen [2]: 146.3 Å² |
| Cc1ccc(N2C(=O)C=CC2=O)cc1N1C(=O)C=CC1=O [Toluene-2,4-dimaleimide] | – | – | – | collision cross section in nitrogen [2]: 163.3 Å² |
| OCCOCCN1CCN(C(c2ccccc2)c2ccc(Cl)cc2)CC1 (stereo not drawn) [Hydroxyzine hydrochloride] | 197.2 Å² | 195.7 Å² | – | collision cross section in nitrogen [2]: 197.7 Å² |
